Results on 1 compound are retold here after patent US20080070909A1, “ENANTIOMERICALLY PURE BETA AGONISTS, MANUFACTURING AND USE THEREOF” (priority 2006, published 2008).

The term melting point denotes the temperature of the solid-liquid transition.

`CCC1(CC)OC(=O)N(CCC(C)(C)NCC(O)c2ccc(O)c(NS(C)(=O)=O)c2)c2ccccc21` (stereo not shown) [Example 10, N-(5-{2-[3-(4,4-diethyl-2-oxo-4H-benzo[d][1,3]oxazin-1-yl)-1,1-dimethyl-propylamino]-1-hydroxy-ethyl}-2-hydroxy-phenyl)-methanesulphonamide] showed a melting point of 168 °C.
